From patent US12662489B2 (Sitryx Therapeutics Limited, priority 2023, dated 2026)

What was measured:
human CD4+ T cells = experiment: Human CD4+ T-cell proliferation assay (CFSE, CD3/28 beads); details: read-out: Proliferation IC50
Description: Cells were incubated at room temperature for 8 minutes in a rotator in the dark. 13 mL cRPMI was added to each tube and cells were centrifuged at 500×g for 4 minutes at room temperature before pellets were resuspended in 10 mL cRPMI. Cells were counted using the Auto2000 Cellometer and AO/PI viability stain and concentration adjusted to 0.6×10^6 cells/mL in cRPMI. […] Control wells were included for flow cytometry and edge wells were filled with 200 μL 1×dPBS. Cells were incubated at 37° C., 5% CO2 for 2 days before compound treatment. […] Cells were incubated at 37° C., 5% CO2 for a further 2 days prior to flow staining and supernatant harvest.
On the final day plates were centrifuged at 500×g for 4 minutes at room temperature. 125 μL of supernatants were transferred to a V bottom 96 well polystyrene plate and stored at −80° C. Plates were gently vortexed to disrupt the cell pellets before 125 μL 1×PBS was added to each well. Plates were centrifuged at 500×g for 4 minutes at room temperature and supernatants removed from the plates by aspirating. Plates were gently vortexed and 30 μL of live/dead stain (Invitrogen, L34975) in 1×dPBS was added and incubated for 15 minutes in the dark at 4° C. […] 100 μL of flow cytometry buffer was added and plates were centrifuged at 500×g for 4 minutes before supernatants were aspirated from the plates. Wells were resuspended in 200 μL flow cytometry buffer and plates stored at 4° C. before being run on the flow cytometer.
Data was analysed using FlowJo and the compensation matrix applied to all samples. The gates were set using unstained and unstimulated samples.

[1] = target: T1, MTHFD1 recombinant human enzyme (Homo sapiens, UniProt P11586); experiment: MTHFD1 inhibition assay (NAD(P)H-Glo luminescence); details: MTHFD1 IC50, recombinant human enzyme 200 nM, NADP, band
T1 sequence (P11586 2-291 limits assumed): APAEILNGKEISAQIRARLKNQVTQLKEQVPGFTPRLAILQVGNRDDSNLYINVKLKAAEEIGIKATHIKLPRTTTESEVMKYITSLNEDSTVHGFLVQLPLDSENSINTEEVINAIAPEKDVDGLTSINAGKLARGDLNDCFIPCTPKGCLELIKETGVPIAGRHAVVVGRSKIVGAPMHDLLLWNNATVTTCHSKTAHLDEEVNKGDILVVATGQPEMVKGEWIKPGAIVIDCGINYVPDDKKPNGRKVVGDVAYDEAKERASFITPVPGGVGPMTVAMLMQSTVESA

[2] = target: T2, MTHFD2 recombinant human enzyme (Homo sapiens, UniProt P13995); experiment: MTHFD2 inhibition assay (NAD(P)H-Glo luminescence); details: for MTHFD1/MTHFD2 IC50 ratio: selectivity of MTHFD2 inhibition over MTHFD1, band
T2 sequence (P13995 36-350): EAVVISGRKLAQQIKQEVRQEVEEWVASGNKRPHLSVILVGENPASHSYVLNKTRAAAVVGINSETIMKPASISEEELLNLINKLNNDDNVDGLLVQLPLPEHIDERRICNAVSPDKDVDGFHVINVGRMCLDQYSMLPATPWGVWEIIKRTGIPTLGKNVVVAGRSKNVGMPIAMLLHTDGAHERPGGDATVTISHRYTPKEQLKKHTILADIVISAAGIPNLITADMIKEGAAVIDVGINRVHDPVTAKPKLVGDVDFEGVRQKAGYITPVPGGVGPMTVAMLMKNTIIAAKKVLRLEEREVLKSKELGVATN

IC50 [1] [nM] | IC50 [2] [nM] | MTHFD1/MTHFD2 IC50 ratio [2] | Structure (SMILES) | IC50 (human CD4+ T cells) [nM]
100 to 1000 | 1 to 10 | J (>30) | COC[C@H]1CN(c2cc(C)c3c4c(c(=O)oc3c2C)CN(C(=O)c2ccc(C(=O)NS(=O)(=O)N3CCCC3)c(F)c2)CC4)CCN1C [Example 265, (R)-2-fluoro-4-(8-(3-(methoxymethyl)-4-methylpiperazin-1-yl)-7,10-dimethyl-5-oxo-1,3,4,5-tetrahydro-2H-chromeno[3,4-c]pyridine-3-carbonyl)-N-(pyrrolidin-1-ylsulfonyl)benzamide] | 100 to 1000
100 to 1000 | 10 to 100 | H (>9.0 to 30) | COC[C@H]1CN(c2cc(C)c3c4c(c(=O)oc3c2C)CN(C(=O)c2ccc(C(=O)NS(=O)(=O)N3CCCC3)c(OC(F)(F)F)c2F)CC4)CCN1C [Example 169, (R)-3-fluoro-4-(8-(3-(methoxymethyl)-4-methylpiperazin-1-yl)-7,10-dimethyl-5-oxo-1,3,4,5-tetrahydro-2H-chromeno[3,4-c]pyridine-3-carbonyl)-N-(pyrrolidin-1-ylsulfonyl)-2-(trifluoromethoxy)benzamide] | 100 to 1000
100 to 1000 | 1 to 10 | J (>30) | COC[C@H]1CN(c2cc(F)c3c4c(c(=O)oc3c2C)CN(C(=O)c2cc(N(C)C)c(C(=O)NS(=O)(=O)N3CCCC3)cc2F)CC4)CCN1C [Example 308, (R)-2-(dimethylamino)-5-fluoro-4-(10-fluoro-8-(3-(methoxymethyl)-4-methylpiperazin-1-yl)-7-methyl-5-oxo-1,3,4,5-tetrahydro-2H-chromeno[3,4-c]pyridine-3-carbonyl)-N-(pyrrolidin-1-ylsulfonyl)benzamide] | 1 to 10
100 to 1000 | 1 to 10 |  | COC[C@H]1CN(c2cc(Cl)c3c4c(c(=O)oc3c2C)CN(C(=O)c2cc(N(C)C)c(C(=O)NS(=O)(=O)N3CCCC3)cc2F)CC4)CCN1C [Example 247, (R)-4-(10-chloro-8-(3-(methoxymethyl)-4-methylpiperazin-1-yl)-7-methyl-5-oxo-1,3,4,5-tetrahydro-2H-chromeno[3,4-c]pyridine-3-carbonyl)-2-(dimethylamino)-5-fluoro-N-(pyrrolidin-1-ylsulfonyl)benzamide] | 10 to 30
1000 to 5000 | 1 to 10 | J (>30) | COC[C@H]1CN(c2cc(C)c3c4c(c(=O)oc3c2C)CN(C(=O)c2cc(F)c(C(=O)NS(=O)(=O)N3CCCC3)cc2C)CC4)CCN1C [Example 270, (R)-2-fluoro-4-(8-(3-(methoxymethyl)-4-methylpiperazin-1-yl)-7,10-dimethyl-5-oxo-1,3,4,5-tetrahydro-2H-chromeno[3,4-c]pyridine-3-carbonyl)-5-methyl-N-(pyrrolidin-1-ylsulfonyl)benzamide] | 1000 to 5000
10 to 100 | 1 to 10 | J (>30) | COC[C@H]1CN(c2cc(C)c3c4c(c(=O)oc3c2C)CN(C(=O)c2cc(OC3CC3)c(C(=O)NS(=O)(=O)N3CC5CC5C3)cc2F)CC4)CCN1C (stereo partly drawn) [Example 264, N-((3-azabicyclo[3.1.0]hexan-3-yl)sulfonyl)-2-cyclopropoxy-5-fluoro-4-(8-((R)-3-(methoxymethyl)-4-methylpiperazin-1-yl)-7,10-dimethyl-5-oxo-1,3,4,5-tetrahydro-2H-chromeno[3,4-c]pyridine-3-carbonyl)benzamide] | 10 to 30
1000 to 5000 | 100 to 1000 | H (>9.0 to 30) | COC[C@H]1CN(c2cc(C)c3c4c(c(=O)oc3c2C)CN(C(=O)c2ccc(C(=O)NS(=O)(=O)N(C)C3CCCC3)cc2F)CC4)CCN1C [Example 199, (R)-N-(N-cyclopentyl-N-methylsulfamoyl)-3-fluoro-4-(8-(3-(methoxymethyl)-4-methylpiperazin-1-yl)-7,10-dimethyl-5-oxo-1,3,4,5-tetrahydro-2H-chromeno[3,4-c]pyridine-3-carbonyl)benzamide] | 100 to 1000

More lines, now with the values behind:

Structure (SMILES) | IC50 [1] [nM] | IC50 [2] [nM] | MTHFD1/MTHFD2 IC50 ratio [2] | IC50 (human CD4+ T cells) [nM]
COC[C@H]1CN(c2cc(Cl)c3c4c(c(=O)oc3c2C)CN(C(=O)c2cc(OC)c(C(=O)NS(=O)(=O)N3C5CCC3CC5)cc2F)CC4)CCN1C [Example 324, (R)-N-((7-azabicyclo[2.2.1]heptan-7-yl)sulfonyl)-4-(10-chloro-8-(3-(methoxymethyl)-4-methylpiperazin-1-yl)-7-methyl-5-oxo-1,3,4,5-tetrahydro-2H-chromeno[3,4-c]pyridine-3-carbonyl)-5-fluoro-2-methoxybenzamide] | 100 to 1000 | 10 to 100 | J (>30) | 100 to 1000
COC[C@H]1CN(c2cc(C)c3c4c(c(=O)oc3c2C)CN(C(=O)c2cc(N(C)C)c(C(=O)NS(=O)(=O)N3C5CCC3CC5)cc2F)CC4)CCN1C [Example 255, (R)-N-((7-azabicyclo[2.2.1]heptan-7-yl)sulfonyl)-2-(dimethylamino)-5-fluoro-4-(8-(3-(methoxymethyl)-4-methylpiperazin-1-yl)-7,10-dimethyl-5-oxo-1,3,4,5-tetrahydro-2H-chromeno[3,4-c]pyridine-3-carbonyl)benzamide] | 1000 to 5000 | 1 to 10 | J (>30) | 10 to 30
COC[C@H]1CN(c2cc(C)c3c4c(c(=O)oc3c2C)CN(C(=O)c2cc(N(C)C)c(C(=O)NS(=O)(=O)N3CCC[C@H]3COC)cc2F)CC4)CCN1C [Example 312, 2-(dimethylamino)-5-fluoro-4-(8-((R)-3-(methoxymethyl)-4-methylpiperazin-1-yl)-7,10-dimethyl-5-oxo-1,3,4,5-tetrahydro-2H-chromeno[3,4-c]pyridine-3-carbonyl)-N-(((S)-2-(methoxymethyl)pyrrolidin-1-yl)sulfonyl)benzamide] | 100 to 1000 | 1 to 10 | J (>30) | 10 to 30
CCOc1cc(C(=O)N2CCc3c(c(=O)oc4c(C)c(N5CCN(C)[C@@H](COC)C5)cc(C)c34)C2)c(F)cc1C(=O)NS(=O)(=O)N1C2CCC1COC2 [Example 221, N-((3-oxa-8-azabicyclo[3.2.1]octan-8-yl)sulfonyl)-2-ethoxy-5-fluoro-4-(8-((R)-3-(methoxymethyl)-4-methylpiperazin-1-yl)-7,10-dimethyl-5-oxo-1,3,4,5-tetrahydro-2H-chromeno[3,4-c]pyridine-3-carbonyl)benzamide] | 100 to 1000 | 10 to 100 | H (>9.0 to 30) | 30 to 100
COC[C@H]1CN(c2cc(C)c3c4c(c(=O)oc3c2C)CN(C(=O)c2cc(N(C)C)c(C(=O)NS(=O)(=O)N3C[C@@H]5C[C@H]3CO5)cc2F)CC4)CCN1C [Example 313, N-(((1S,4S)-2-oxa-5-azabicyclo[2.2.1]heptan-5-yl)sulfonyl)-2-(dimethylamino)-5-fluoro-4-(8-((R)-3-(methoxymethyl)-4-methylpiperazin-1-yl)-7,10-dimethyl-5-oxo-1,3,4,5-tetrahydro-2H-chromeno[3,4-c]pyridine-3-carbonyl)benzamide] | 100 to 1000 | 1 to 10 | J (>30) | 30 to 100
CCOc1cc(C(=O)N2CCc3c(c(=O)oc4c(C)c(N5CCN(C)[C@@H](COC)C5)cc(C)c34)C2)c(F)cc1C(=O)NS(=O)(=O)N(C1CC1)C1CC1 [Example 216, (R)-N-(N,N-dicyclopropylsulfamoyl)-2-ethoxy-5-fluoro-4-(8-(3-(methoxymethyl)-4-methylpiperazin-1-yl)-7,10-dimethyl-5-oxo-1,3,4,5-tetrahydro-2H-chromeno[3,4-c]pyridine-3-carbonyl)benzamide] | 100 to 1000 | 10 to 100 | G (^ 3 to 9.0) | 10 to 30
COC[C@H]1CN(c2ccc3c4c(c(=O)oc3c2C)CN(C(=O)c2ccc(C(=O)NS(=O)(=O)C3(C)CC3)c(N3CCCC3)c2)CC4)CCN1C [Example 15, (R)-4-(8-(3-(methoxymethyl)-4-methylpiperazin-1-yl)-7-methyl-5-oxo-1,3,4,5-tetrahydro-2H-chromeno[3,4-c]pyridine-3-carbonyl)-N-((1-methylcyclopropyl)sulfonyl)-2-(pyrrolidin-1-yl)benzamide] | 10 to 100 | 10 to 100 | F (<3) | 1 to 10
COC[C@H]1CN(c2cc(C)c3c4c(c(=O)oc3c2C)CN(C(=O)c2cc(OC3CCCC3)c(C(=O)NS(=O)(=O)C3(C)CC3)c(C(F)(F)F)c2)CC4)CCN1C [Example 128, (R)-2-(cyclopentyloxy)-4-(8-(3-(methoxymethyl)-4-methylpiperazin-1-yl)-7,10-dimethyl-5-oxo-1,3,4,5-tetrahydro-2H-chromeno[3,4-c]pyridine-3-carbonyl)-N-((1-methylcyclopropyl)sulfonyl)-6-(trifluoromethyl)benzamide] | 1000 to 5000 | 10 to 100 | H (>9.0 to 30) | 1000 to 5000
